Test system: IL-12
Experiment: Human in vitro assay: inhibition of IL-12 production in IFNγ/LPS- or IFNγ/SAC-stimulated human PBMC or THP-1 cells (ELISA)
Type: cell-based
Settings: read-out: IC50 Range (representative in vitro IC50 data)
Method in brief: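 PBMC (5×10^5 cells/well) primed with IFNγ 30 U/mL for 22 h then LPS 1 μg/mL, or IFNγ 100 U/mL then SAC 0.01%; THP-1 primed with IFNγ 100 U/mL for 22 h then SAC 0.025%, with compound in 0.25% DMSO. Supernatant IL-12 p70/p40 measured by sandwich ELISA after 18 h; IC50 derived; viability by MTS.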

Molecule `COCCN(C)c1cc(C(=O)Nc2cc(C)on2)nc(N2CCOCC2)n1` [Compound 237, 6-[(2-Methoxy-ethyl)-methyl-amino]-2-morpholin-4-yl-pyrimidine-4-carboxylic acid (5-methyl-isoxazol-3-yl)-amide] has an IC50 of at least 1000 nM.

`NC(=O)c1cccc(NC(=O)c2cc(N3CCOCC3)nc(N3CCOCC3)n2)c1` [Compound 52, 2,6-Di-morpholin-4-yl-pyrimidine-4-carboxylic acid (3-carbamoyl-phenyl)-amide] showed an IC50 of at least 1000 nM.

`O=C(Nc1ccc2ncccc2c1)c1cc(OCCc2ccccn2)nc(N2CCOCC2)n1` [Compound 38, 2-Morpholin-4-yl-6-(2-pyridin-2-yl-ethoxy)-pyrimidine-4-carboxylic acid quinolin-6-ylamide] showed an IC50 of at least 1000 nM.

`COCCN(C)c1cc(C(=O)Nc2cc(N(C)C)ccc2F)nc(N2CCOCC2)n1` [Compound 212, N-(5-(dimethylamino)-2-fluorophenyl)-6-((2-methoxyethyl)(methyl)amino)-2-morpholinopyrimidine-4-carboxamide] showed an IC50 of at least 1000 nM.

For `CNCCOc1cc(NC(=O)Nc2cccc(C)c2)nc(N2CCOCC2)n1` [Compound 10, 1-[6-(2-Methylamino-ethoxy)-2-morpholin-4-yl-pyrimidin-4-yl]-3-m-tolyl-urea], the IC50 was under 1000 nM.

`COCCN(C)c1cc(C(=O)Nc2ccc(Br)c(C)c2)nc(N2CCOCC2)n1` [Compound 230, 6-[(2-Methoxy-ethyl)-methyl-amino]-2-morpholin-4-yl-pyrimidine-4-carboxylic acid (4-bromo-3-methyl-phenyl)-amide] gave an IC50 of at least 1000 nM.

In the case of `CCNC(=O)CNc1cc(C(=O)Nc2ccc3[nH]c(C)c(C)c3c2)nc(N2CCOCC2)n1` [Compound 105, 6-(Ethylcarbamoylmethyl-amino)-2-morpholin-4-yl-pyrimidine-4-carboxylic acid (2,3-dimethyl-1H-indol-5-yl)-amide], the IC50 is reported as under 1000 nM.

Work on `O=C(Nc1ccc2[nH]c3c(c2c1)CCCC3)Nc1cc(OCCN2CCOCC2)nc(N2CCOCC2)n1` [Compound 325, 1-[2-Morpholin-4-yl-6-(2-morpholin-4-yl-ethoxy)-pyrimidin-4-yl]-3-(6,7,8,9-tetrahydro-5H-carbazol-3-yl)-urea] yielded an IC50 of under 1000 nM.

`CNc1cc(NC(=O)c2cc(OCCN3CCOCC3)nc(N3CCOCC3)n2)ccc1C` [Compound 291, 2-Morpholin-4-yl-6-(2-morpholin-4-yl-ethoxy)-pyrimidine-4-carboxylic acid (4-methyl-3-methylamino-phenyl)-amide] gave an IC50 of under 1000 nM.

With `O=C(Nc1cccc(-n2ccnc2)c1)Nc1cc(OCCN2CCOCC2)nc(N2CCOCC2)n1` [Compound 328, 1-(3-Imidazol-1-yl-phenyl)-3-[2-morpholin-4-yl-6-(2-morpholin-4-yl-ethoxy)-pyrimidin-4-yl]-urea] the IC50 was at least 1000 nM.

Work on `O=C(Nc1cccc(O)c1)C(=O)Nc1cc(N2CCOCC2)nc(OCCc2ccccn2)n1` [Compound 87, N-(3-Hydroxy-phenyl)-N′-[6-morpholin-4-yl-2-(2-pyridin-2-yl-ethoxy)-pyrimidin-4-yl]-oxalamide] yielded an IC50 of at least 1000 nM.

`COCCN(C)c1cc(C(=O)Nc2cccc(C(=O)c3ccccc3)c2)nc(N2CCOCC2)n1` [Compound 232, 6-[(2-Methoxy-ethyl)-methyl-amino]-2-morpholin-4-yl-pyrimidine-4-carboxylic acid (3-benzoyl-phenyl)-amide] showed an IC50 of at least 1000 nM.

In the case of `Cc1[nH]c2ccc(NC(=O)c3cc(N(C)CC(N)=O)nc(N4CCOCC4)n3)cc2c1C` [Compound 117, 6-(Carbamoylmethyl-methyl-amino)-2-morpholin-4-yl-pyrimidine-4-carboxylic acid (2,3-dimethyl-1H-indol-5-yl)-amide], the IC50 is reported as under 1000 nM.

For `COCCN(C)c1cc(C(=O)Nc2cccc(N(C)C)c2)nc(N2CCOCC2)c1` [Compound 159, 4-[(2-Methoxy-ethyl)-methyl-amino]-6-morpholin-4-yl-pyridine-2-carboxylic acid (3-dimethylamino-phenyl)-amide], the IC50 was under 1000 nM.

`COCCN(C)c1cc(C(=O)Nc2cc(C)ns2)nc(N2CCOCC2)n1` [Compound 239, 6-[(2-Methoxy-ethyl)-methyl-amino]-2-morpholin-4-yl-pyrimidine-4-carboxylic acid (3-methyl-isothiazol-5-yl)-amide] gave an IC50 of at least 1000 nM.

With `O=C(Nc1ccc2c(C(F)(F)F)cc(=O)oc2c1)c1cc(NCCN2CCOCC2)nc(N2CCOCC2)n1` [Compound 192, 2-morpholino-6-(2-morpholinoethylamino)-N-(2-oxo-4-(trifluoromethyl)-2H-chromen-7-yl)pyrimidine-4-carboxamide] the IC50 was at least 1000 nM.

`COCCN(C)c1cc(C(=O)Nc2cccc(OC(F)(F)F)c2)nc(N2CCOCC2)n1` [Compound 244, 6-[(2-Methoxy-ethyl)-methyl-amino]-2-morpholin-4-yl-pyrimidine-4-carboxylic acid (3-trifluoromethoxy-phenyl)-amide] gave an IC50 of at least 1000 nM.

`Cc1ccc([N+](=O)[O-])c(NC(=O)c2cc(OCCN3CCOCC3)nc(N3CCOCC3)n2)c1` [Compound 271, 2-Morpholin-4-yl-6-(2-morpholin-4-yl-ethoxy)-pyrimidine-4-carboxylic acid (5-methyl-2-nitro-phenyl)-amide] gave an IC50 of under 1000 nM.

`CCn1c2ccccc2c2ccc(NC(=O)c3cc(OCCc4ccccn4)nc(N4CCOCC4)n3)cc21` [Compound 33, 2-Morpholin-4-yl-6-(2-pyridin-2-yl-ethoxy)-pyrimidine-4-carboxylic acid (9-ethyl-9H-carbazol-2-yl)-amide] showed an IC50 of at least 1000 nM.

`O=C(Nc1ccc2[nH]c(C(F)(F)F)nc2c1)c1cc(NCCN2CCOCC2)nc(N2CCOCC2)n1` [Compound 190, 2-morpholino-6-(2-morpholinoethylamino)-N-(2-(trifluoromethyl)-1H-benzo[d]imidazol-5-yl)pyrimidine-4-carboxamide] gave an IC50 of at least 1000 nM.

In the case of `Cc1ccc(NC(=S)Nc2cc(N3CCOCC3)nc(OCCN3CCOCC3)n2)cc1` [Compound 12, 1-[6-Morpholin-4-yl-2-(2-morpholin-4-yl-ethoxy)-pyrimidin-4-yl]-3-p-tolyl-thiourea], the IC50 is reported as at least 1000 nM.

For `O=C(Nc1cccc(F)c1)Nc1cc(OCCN2CCOCC2)nc(N2CCOCC2)n1` [Compound 125, 1-(3-Fluoro-phenyl)-3-[2-morpholin-4-yl-6-(2-morpholin-4-yl-ethoxy)-pyrimidin-4-yl]-urea], the IC50 was under 1000 nM.

Work on `CONc1cc(C(=O)Nc2ccc3[nH]c(C)c(C)c3c2)nc(N2CCOCC2)c1` [Compound 161, 4-Methoxyamino-6-morpholin-4-yl-pyridine-2-carboxylic acid (2,3-dimethyl-1H-indol-5-yl)-amide] yielded an IC50 of under 1000 nM.

`O=C1COc2ccc(NC(=O)c3cc(OCCN4CCOCC4)nc(N4CCOCC4)n3)cc2N1` [Compound 199, 2-morpholino-6-(2-morpholinoethoxy)-N-(3-oxo-3,4-dihydro-2H-benzo[b][1,4]oxazin-6-yl)pyrimidine-4-carboxamide] showed an IC50 of at least 1000 nM.

Work on `CC(=O)N[C@H]1CCN(c2cc(C(=O)Nc3ccc4[nH]cc(C)c4c3)nc(N3CCOCC3)n2)C1` [Compound 260, (S)-6-(3-acetamidopyrrolidin-1-yl)-N-(3-methyl-1H-indol-5-yl)-2-morpholinopyrimidine-4-carboxamide] yielded an IC50 of under 1000 nM.

`Cc1cccc(OC(=O)Nc2cc(N3CCOCC3)nc(OCCc3ccccn3)n2)c1` [Compound 88, [6-Morpholin-4-yl-2-(2-pyridin-2-yl-ethoxy)-pyrimidin-4-yl]-carbamic acid m-tolyl ester] was tested, and the IC50 was at least 1000 nM.

For `O=C(Nc1cc(OCCN2CCOCC2)nc(N2CCOCC2)n1)Nc1nc2ccc(Cl)cc2s1` [Compound 139, 1-(6-Chloro-benzothiazol-2-yl)-3-[2-morpholin-4-yl-6-(2-morpholin-4-yl-ethoxy)-pyrimidin-4-yl]-urea], the IC50 was under 1000 nM.

`Cc1cccc(NNC(=O)c2cc(OCCN3CCOCC3)nc(N3CCOCC3)c2)c1` [Compound 82, 2-Morpholin-4-yl-6-(2-morpholin-4-yl-ethoxy)-isonicotinic acid N′-m-tolyl-hydrazide] showed an IC50 of at least 1000 nM.

Work on `COCCN(C)c1cc(C(=O)Nc2cccc(-c3csc(C)n3)c2)nc(N2CCOCC2)n1` [Compound 245, 6-[(2-Methoxy-ethyl)-methyl-amino]-2-morpholin-4-yl-pyrimidine-4-carboxylic acid [3-(2-methyl-thiazol-4-yl)-phenyl]-amide] yielded an IC50 of under 1000 nM.

`COCCN(C)c1cc(C(=O)Nc2ccc(F)c(N(C)C)c2)nc(N2CCOCC2)n1` [Compound 215, N-(3-(dimethylamino)-4-fluorophenyl)-6-((2-methoxyethyl)(methyl)amino)-2-morpholinopyrimidine-4-carboxamide] gave an IC50 of under 1000 nM.

`Cc1cc(C)cc(NC(=O)c2cc(OCCN3CCOCC3)nc(N3CCOCC3)n2)c1` [Compound 282, 2-Morpholin-4-yl-6-(2-morpholin-4-yl-ethoxy)-pyrimidine-4-carboxylic acid (3,5-dimethyl-phenyl)-amide] showed an IC50 of under 1000 nM.

`Cc1[nH]c2ccc(NC(=O)c3cc(N4CCOCC4)nc(OCCc4ccccn4)n3)cc2c1C` [Compound 63, 6-Morpholin-4-yl-2-(2-pyridin-2-yl-ethoxy)-pyrimidine-4-carboxylic acid (2,3-dimethyl-1H-indol-5-yl)-amide] showed an IC50 of at least 1000 nM.

`O=C(Nc1cccnc1)c1cc(OCCN2CCOCC2)nc(N2CCOCC2)n1` [Compound 292, 2-Morpholin-4-yl-6-(2-morpholin-4-yl-ethoxy)-pyrimidine-4-carboxylic acid pyridin-3-ylamide] was tested, and the IC50 was at least 1000 nM.

For `COCCN(C)c1cc(C(=O)Nc2ccc3c(c2)CCN3C(C)=O)nc(N2CCOCC2)n1` [Compound 206, N-(1-acetylindolin-5-yl)-6-((2-methoxyethyl)(methyl)amino)-2-morpholinopyrimidine-4-carboxamide], the IC50 was at least 1000 nM.

Work on `O=C(Nc1nc(OCCc2ccccn2)cc(N2CCOCC2)n1)c1ccncc1` [Compound 76, N-[4-Morpholin-4-yl-6-(2-pyridin-2-yl-ethoxy)-pyrimidin-2-yl]-isonicotinamide] yielded an IC50 of at least 1000 nM.

From US20060223996A1, “IL-12 modulatory compounds” (Synta Pharmaceuticals Corp., priority 2004, published 2006)
